From patent US9598387B2 (Southern Research Institute, priority 2012, dated 2017)

Experiments:
D2LR = D2LR (Homo sapiens (Human), UniProt P14416); assay: β-Arrestin Recruitment Assay, CHO-K1 DRD2L; type: cell-based; settings: antagonist vs EC80 6 nM Pergolide, CHO-K1 DRD2L cells; read-out: D2 IC50
Method: (§1) Antagonist potency of the compounds against agonist induced recruitment of β-arrestin by D3R and D2LR was measured using DiscoverRx PathHunter eXpress kits. […] After incubation at 37° C. for 90 min, the DiscoveRx detection reagent was added, the plates were incubated at room temperature for 60 min and the luminescence was measured on a Synergy 4 plate reader (BioTek). The data were plotted and the agonist EC80 values were calculated using GraphPad Prism software. For antagonist activity, the cells were plated as described above and treated with multiple concentrations (starting from 500 nM, half log dilution, 10 dose points) of the test compounds in Plating Reagent with 0.1% DMSO.

[1] = molecular target: human D2-long dopamine receptor (Homo sapiens (Human), UniProt P14416); assay: Radioligand binding (125I-IABN competition), D2; settings: HEK cell membranes expressing human D2-long
Method: (§2) The affinities of the target compounds were determined using radioligand binding experiments. […] Competition curves were modeled for a single site. Data from competition dose-response curves were analyzed using Tablecurve program (Jandel). IC50 values were converted to equilibrium dissociation constants (Ki values) using the Cheng and Prusoff correction.

D3R [2] = molecular target: T1, D3R (Homo sapiens (Human), UniProt P35462); assay: β-Arrestin Recruitment Assay, U2OS DRD3; type: cell-based; settings: for IC50: antagonist vs EC80 8 nM PD128907, U2OS DRD3 cells, read-out: D3 IC50; for D2 IC50/D3 IC50: ratio of β-arrestin IC50 values
Method: as §1

[3] = molecular target: T2, human D3 dopamine receptor (Homo sapiens (Human), UniProt P35462); assay: Whole Cell Adenylyl Cyclase Assay, D3; type: cell-based; settings: inhibition of forskolin (100 μM) stimulated cAMP, normalized to quinpirole; compound conc ≥10× Ki (per compound); mean ± S.E.M.
Method: (§3) The intrinsic activity of the compounds was evaluated by determining their ability to inhibit forskolin-dependent (100 μM) stimulation of adenylyl cyclase activity using a whole cell assay. A whole cell-cyclic AMP accumulation assay was performed with stably transfected HEK cells expressing human D2 or D3 dopamine receptors. This assay is an adaptation of an earlier published method (Su et al., Cyclic Nucleotide Res. 1976, 2, 257-285). Details regarding this method have been published (Chu, W. et al. Bioorg. Med. Chem. 2005, 13, 77-87; Taylor, M. et al. Synapse 2010, 64, 251-266). Confluent (60-80%) HEK cells transfected with recombinant D2-like dopamine receptors were grown in DMEM/10% fetal calf serum containing geneticin in […] flasks. The endogenous ATP pool is radioactively labeled by preincubating the cells in serum-free DMEM/25 mM Hepes medium containing 2 μCi/mL of [2,8-^3H]-adenine (20-Ci/mmol) in a 5% CO2 incubator at 37° C. for 75 min. The radioactive medium was removed by aspiration. Serum-free DMEM (5.6 mL) containing 25 mM HEPES, pH 7.4, and 0.1 mM of the phosphodiesterase inhibitor isobutylmethylxanthine was added to the flask. A […] aliquot of cells was removed and added to 50 μL of forskolin (100 μM) and 50 μL of test drug or quinpirole in DMEM-HEPES. The cells were incubated for 20 min at 37° C. (vortexing every 5 min). The reaction was terminated by the addition of 0.5 mL of 10% trichloroacetic acid (w/v) containing 1.0 mM unlabeled cyclic AMP as a recovery standard. Both the [^3H]-cyclic AMP and the [^3H]-ATP fractions were collected following separation using columns of Dowex AG-50W-X4 and alumina. The final yield of [^3H]-cyclic AMP is corrected for column recovery of unlabeled cyclic AMP determined spectrophotometrically (OD259). The results are reported as percent conversion of [^3H]-ATP into [^3H]-cyclic AMP. The values for the percent inhibition are reported as the actual percent of inhibition of the ^3H-cAMP accumulation relative to the assay performed in the absence of a test compound, minus basal activity. […] The percent maximum response is the value for the inhibition normalized to the value for the full agonist quinpirole.

[4] = molecular target: human D2 dopamine receptors (Homo sapiens (Human), UniProt P14416); assay: Whole Cell Adenylyl Cyclase Assay, D2; type: cell-based; settings: inhibition of forskolin (100 μM) stimulated cAMP, normalized to quinpirole; compound conc ≥10× Ki (per compound); mean ± S.E.M.
Method: as §3

[5] = molecular target: T2, human D3 dopamine receptor; assay: Radioligand binding (125I-IABN competition), D3; settings: for Ki: 125I-IABN competition, HEK cell membranes expressing human D3; for D2/D3 (D3 selectivity ratio, D2 Ki/D3 Ki): calculated D2 Ki/D3 Ki
Method: as §2

D3R [6] = molecular target: T1, D3R; assay: D3 Mitogenesis Functional Assay (3H-thymidine uptake, CHOp-D3 cells); type: cell-based; settings: for Emax at 10 µM: % maximum stimulation vs quinpirole (100%), read-out: D3 Agonist Emax; for D3 Antagonist Imax: inhibition of quinpirole stimulation of mitogenesis; for IC50: read-out: D3 Antagonist IC50
Method: (§4) These assays are based on ^3H-thymidine uptake by cells that are proliferating.
CHO cells expressing human D3 receptors (CHOp-D3 cells) were maintained in alpha-MEM with 10% fetal bovine serum (FBS, Atlas Biologicals), 0.05% pen-strep, and 200 μg/ml of G418. […] The cells are incubated at 37° C. in alpha-MEM with 10% FBS. After 48-72 hours, the cells are rinsed twice with serum-free alpha-MEM and incubated for 24 hours at 37° C. Serial dilutions of test compounds were made by the Biomek robotics system in serum-free alpha-MEM. In the functional assay for agonism, the medium is removed and replaced with 100 μL of test compound in serum-free alpha-MEM. In the antagonist assay, the serial dilution of the putative antagonist test compound was added in 90 μL (1.1× of final concentration) and 300 nM quinpirole (30 nM final) was added in 10 uL. After another 16-hour incubation at 37° C., 0.25 μCi of [^3H]thymidine in alpha-MEM supplemented with 10% FBS was added to each well and the plates were further incubated for 2 hours at 37° C. The cells were trypsinized by addition of 10× trypsin solution (1% trypsin in calcium-magnesium-free phosphate-buffered saline) and the plates were filtered and counted as usual. Quinpirole was run as an internal control and dopamine was included for comparative purposes. Butaclamol was run as the standard antagonist. Data were analyzed using GraphPAD Prism and agonist potency was expressed as EC50 values or % stimulation and antagonist potency was expressed as IC50 values. In these assays, based on the % maximum stimulation as compared to the standard agonist quinpirole (100%) the compounds were classified into following categories: ≧90% full agonist; 70-90% partial to full agonist; <70% partial agonist; 0-20% potential antagonist.

human D2 receptors = human D2 receptors (Homo sapiens (Human), UniProt P14416); assay: D2 Mitogenesis Functional Assay (3H-thymidine uptake, CHOp-D2 cells); type: cell-based
Method: as §4
CHO cells expressing human D2 receptors (CHOp-D2 cells) were maintained in alpha-MEM with 10% FCS, 0.05% pen-strep, and 200 μg/mL of G418. […] The cells were incubated at 37° C. in alpha-MEM with 10% FCS. After 48-72 hours, the cells were rinsed twice with serum-free alpha-MEM and incubated for 24 hours at 37° C. Serial dilutions of test compounds were made by the Biomek robotics system in serum-free alpha-MEM. In the functional assay for agonism, the medium was removed and replaced with 100 μL of test compound in serum-free alpha-MEM. In the antagonist assay, the serial dilution of the putative antagonist test compound was added in 90 μL (1.1× of final concentration) and 300 nM quinpirole (30 nM final) was added in […]. After another 24-hour incubation at 37° C., 0.25 μCi of [^3H]thymidine in alpha-MEM supplemented with 10% FCS was added to each well and the plates were further incubated for 2 hours at 37° C. The cells were trypsinized by addition of 10× trypsin solution (1% trypsin in calcium-magnesium-free phosphate-buffered saline) and the plates were filtered and counted as usual. Quinpirole was run as an internal control and dopamine was included for comparative purposes. Butaclamol was run as the standard antagonist.

T1 sequence (P35462 whole entry): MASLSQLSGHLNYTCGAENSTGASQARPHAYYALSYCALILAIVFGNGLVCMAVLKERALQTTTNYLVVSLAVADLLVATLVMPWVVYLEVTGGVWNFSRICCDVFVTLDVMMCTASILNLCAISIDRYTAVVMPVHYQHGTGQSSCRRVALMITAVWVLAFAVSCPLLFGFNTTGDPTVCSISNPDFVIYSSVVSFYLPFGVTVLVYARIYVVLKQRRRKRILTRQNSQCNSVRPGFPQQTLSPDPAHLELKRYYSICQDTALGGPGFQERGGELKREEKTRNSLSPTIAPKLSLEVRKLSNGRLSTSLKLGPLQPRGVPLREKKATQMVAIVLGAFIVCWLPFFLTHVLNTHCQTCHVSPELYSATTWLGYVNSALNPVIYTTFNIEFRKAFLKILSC
T2 sequence (P35462 whole entry): as above
D2LR, sequence (P14416 whole entry): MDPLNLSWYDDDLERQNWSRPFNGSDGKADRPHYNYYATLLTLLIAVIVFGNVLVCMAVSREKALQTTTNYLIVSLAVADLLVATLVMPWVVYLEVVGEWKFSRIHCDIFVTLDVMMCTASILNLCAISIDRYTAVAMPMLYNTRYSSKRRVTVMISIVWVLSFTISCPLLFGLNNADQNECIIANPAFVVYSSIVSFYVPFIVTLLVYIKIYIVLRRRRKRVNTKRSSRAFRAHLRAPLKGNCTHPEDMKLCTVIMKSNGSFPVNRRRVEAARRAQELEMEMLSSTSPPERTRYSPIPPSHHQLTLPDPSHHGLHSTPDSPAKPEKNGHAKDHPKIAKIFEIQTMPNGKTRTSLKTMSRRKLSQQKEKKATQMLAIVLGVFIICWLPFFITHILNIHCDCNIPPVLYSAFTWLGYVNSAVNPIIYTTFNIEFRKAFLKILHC
human D2-long dopamine receptor, sequence (P14416 whole entry): as above
human D2 dopamine receptors, sequence (P14416 whole entry): as above
human D2 receptors, sequence (P14416 whole entry): as above

Compound	IC50 (D2LR) [nM]	Ki [1] [nM]	IC50 (D3R [2]) [nM]	D2 IC50/D3 IC50 (D3R [2])	D3 Cyclase % Inhibition Normalized [3] [%]	D2 Cyclase % Inhibition Normalized [4] [%]	Ki [5] [nM]	D2/D3 (D3 selectivity ratio, D2 Ki/D3 Ki) [5]	EC50 (D3R [6]; CHOp-D3 cells, stimulation of mitogenesis, read-out: D3 Agonist EC50) [nM]	Emax at 10 µM (D3R [6]) [%]	D3 Antagonist Imax (D3R [6]) [%]	IC50 (D3R [6]) [nM]	Emax at 10 µM (human D2 receptors; at 10 μM, % maximum stimulation vs quinpirole (100%), read-out: D2 Agonist Emax) [%]	D2 Antagonist Imax (human D2 receptors; at 10 μM, inhibition of quinpirole stimulation of mitogenesis) [% at 10 μM]	IC50 (human D2 receptors; read-out: D2 Antagonist IC50) [nM]
CN(C)Cc1c(C(=O)NCCCCN2CCN(c3cc(C(F)(F)F)nc(C(C)(C)C)n3)CC2)nc2ccccn12 [Compound 120, N-(4-(4-(2-(tert-Butyl)-6-(trifluoromethyl)pyrimidin-4-yl)piperazin-1-yl)butyl)-3-((dimethylamino)methyl)imidazo[1,2-a]pyridine-2-carboxamide]	217 ± 10	301	7.2 ± 3.68	30	47.4 ± 4.4	8.9 ± 5.0	28.8 ± 6.1	10							
O=C(NCCCCN1CCN(c2ccnc3ccccc23)CC1)C1CCC(c2ccccc2)CC1 (centres unmarked) [Compound 104, 4-Phenyl-N-(4-(4-(quinolin-4-yl)piperazin-1-yl)butyl)cyclohexanecarboxamide]	> 500	5160 ± 822	33.7 ± 14.3	>15	53.4 ± 13.0		35.3 ± 4.8	146							
CC(C)(C)c1nc(N2CCN(CCCCNC(=O)N3CCC(c4ccccc4)CC3)CC2)cc(C(F)(F)F)n1 [Compound 48, N-(4-(4-(2-(tert-Butyl)-6-(trifluoromethyl)pyrimidin-4-yl)piperazin-1-yl)butyl)-4-phenylpiperidine-1-carboxamide]	> 500	1620 ± 402	28.1 ± 4.9	>18	64.3 ± 10.4		11 ± 2.4	147	> 10000	< 5	81.2	2000 ± 480			
CN(C)Cc1cccc2nc(C(=O)NCCCCN3CCN(c4cc(C(F)(F)F)nc(C(C)(C)C)n4)CC3)cn12 [Compound 121, N-(4-(4-(2-(tert-Butyl)-6-(trifluoromethyl)pyrimidin-4-yl)piperazin-1-yl)butyl)-5-((dimethylamino)methyl)imidazo[1,2-a]pyridine-2-carboxamide]	281 ± 43	298	28.8 ± 2.7	10			27.3 ± 3.4	11							

More lines, now with the values ahead:

IC50 (D2LR) [nM]	Ki [1] [nM]	IC50 (D3R [2]) [nM]	D2 IC50/D3 IC50 (D3R [2])	D3 Cyclase % Inhibition Normalized [3] [%]	D2 Cyclase % Inhibition Normalized [4] [%]	Ki [5] [nM]	D2/D3 (D3 selectivity ratio, D2 Ki/D3 Ki) [5]	EC50 (D3R [6]; CHOp-D3 cells, stimulation of mitogenesis, read-out: D3 Agonist EC50) [nM]	Emax at 10 µM (D3R [6]) [%]	D3 Antagonist Imax (D3R [6]) [%]	IC50 (D3R [6]) [nM]	Emax at 10 µM (human D2 receptors; at 10 μM, % maximum stimulation vs quinpirole (100%), read-out: D2 Agonist Emax) [%]	D2 Antagonist Imax (human D2 receptors; at 10 μM, inhibition of quinpirole stimulation of mitogenesis) [% at 10 μM]	IC50 (human D2 receptors; read-out: D2 Antagonist IC50) [nM]	Compound
376 ± 31	366 ± 18	3.86 ± 2.51	97	73.4 ± 11.0	54.5 ± 4.5	2.7 ± 0.1	136								Cc1cc(N2CCN(CCCCNC(=O)N3CCN(c4ccccc4)CC3)CC2)nc(C(C)(C)C)n1 [Compound 5, N-(4-(4-(2-(tert-Butyl)-6-methylpyrimidin-4-yl)piperazin-1-yl)butyl)-4-phenylpiperazine-1-carboxamide]
	21 ± 2.4			66.4 ± 16.4	61.0 ± 4.5	0.39 ± 0.1	54		< 20	93.1	3.43 ± 0.29	< 20	91.0	14.6 ± 5.5	O=C(NCCCCN1CCN(c2cccc(Cl)c2Cl)CC1)N1CCN(c2ccccc2)CC1 [Compound 3, N-(4-(4-(2,3-Dichlorophenyl)piperazin-1-yl)butyl)-4-phenylpiperazine-1-carboxamide]
> 500	536 ± 118	26.2 ± 10.2	>19	61.7 ± 6.4	6.3 ± 4.3	3 ± 0.2	182								CC(C)(C)c1nc(N2CCN(CCCCNC(=O)N3CCc4c([nH]c5ccccc45)C3)CC2)cc(C(F)(F)F)n1 [Compound 55]
